Solubility data for 21 compounds are collected here from patent publication US9539252B2, “Piperazine-substituted benzothiophene derivatives as antipsychotic agents” (OTSUKA PHARMACEUTICAL CO., LTD., priority 2011, dated 2017).

The data set is described as follows: Solubility in oil (sesame oil, benzyl benzoate), visual observation. Particulars: oil or lipid, thermodynamic from solid.

In general, solubility refers to how much of the substance goes into solution per volume. Higher therefore signals much dissolved substance. Turning to `CCCCCCCCCCCCCCCCCCNC(=O)OCN1C(=O)CCc2ccc(OCCCCN3CCN(c4cccc5sccc45)CC3)cc21` [Example 75, N-octadecylcarbamic acid 7-[4-(4-benzo[b]thiophen-4-ylpiperazin-1-yl)butoxy]-2-oxo-3,4-dihydro-2H-quinolin-1-ylmethyl ester], the solubility (benzyl benzoate) was more than 100 mg/mL and the solubility (sesame oil) is more than 100 mg/mL.
Turning to `CCCCCCCCCCCCCCCNC(=O)OCN1C(=O)CCc2ccc(OCCCCN3CCN(c4cccc5sccc45)CC3)cc21` [Example 76, N-pentadecylcarbamic acid 7-[4-(4-benzo[b]thiophen-4-ylpiperazin-1-yl)butoxy]-2-oxo-3,4-dihydro-2H-quinolin-1-ylmethyl ester], the solubility (benzyl benzoate) was more than 100 mg/mL and the solubility (sesame oil) was more than 100 mg/mL.
`CCC(C)C(=O)OCN1C(=O)CCc2ccc(OCCCCN3CCN(c4cccc5sccc45)CC3)cc21` (stereo not drawn) [Example 77, 2-methylbutyric acid 7-[4-(4-benzo[b]thiophen-4-ylpiperazin-1-yl)butoxy]-2-oxo-3,4-dihydro-2H-quinolin-1-ylmethyl ester] had a solubility (benzyl benzoate) of more than 100 mg/mL.
Take `CCCCC(C)C(=O)OCN1C(=O)CCc2ccc(OCCCCN3CCN(c4cccc5sccc45)CC3)cc21` (stereo not drawn) [Example 78, 2-methylhexanoic acid 7-[4-(4-benzo[b]thiophen-4-ylpiperazin-1-yl)butoxy]-2-oxo-3,4-dihydro-2H-quinolin-1-ylmethyl ester]: the solubility (benzyl benzoate) was more than 100 mg/mL.
On to `CCCCCCCCCCCCCCCCCCN(C)C(=O)OCN1C(=O)CCc2ccc(OCCCCN3CCN(c4cccc5sccc45)CC3)cc21` [Example 79, N-methyl-N-octadecylcarbamic acid 7-[4-(4-benzo[b]thiophen-4-ylpiperazin-1-yl)butoxy]-2-oxo-3,4-dihydro-2H-quinolin-1-ylmethyl ester], for which the solubility runs as follows: (benzyl benzoate) more than 100 mg/mL; (sesame oil) more than 100 mg/mL.
Consider `O=C(NCc1ccccc1)OCN1C(=O)CCc2ccc(OCCCCN3CCN(c4cccc5sccc45)CC3)cc21` [Example 80, N-benzylcarbamic acid 7-[4-(4-benzo[b]thiophen-4-ylpiperazin-1-yl)butoxy]-2-oxo-3,4-dihydro-2H-quinolin-1-ylmethyl ester], for which the solubility (benzyl benzoate) was more than 100 mg/mL.
With `CCCC(C)C(=O)OCN1C(=O)CCc2ccc(OCCCCN3CCN(c4cccc5sccc45)CC3)cc21` (stereo not drawn) [Example 81, 2-methylpentanoic acid 7-[4-(4-benzo[b]thiophen-4-ylpiperazin-1-yl)butoxy]-2-oxo-3,4-dihydro-2H-quinolin-1-ylmethyl ester], the solubility (benzyl benzoate) is more than 100 mg/mL.
As to `CCCCCCCCCCCCCC(=O)OCN1C(=O)CCc2ccc(OCCCCN3CCN(c4cccc5sccc45)CC3)cc21` [Example 82, tetradecanoic acid 7-[4-(4-benzo[b]thiophen-4-ylpiperazin-1-yl)butoxy]-2-oxo-3,4-dihydro-2H-quinolin-1-ylmethyl ester], the solubility (benzyl benzoate) was more than 100 mg/mL.
For the setting “benzyl benzoate”, `O=C(NC1CCCCC1)OCN1C(=O)CCc2ccc(OCCCCN3CCN(c4cccc5sccc45)CC3)cc21` [Example 83, N-cyclohexylcarbamic acid 7-[4-(4-benzo[b]thiophen-4-ylpiperazin-1-yl)butoxy]-2-oxo-3,4-dihydro-2H-quinolin-1-ylmethyl ester] showed a solubility of more than 100 mg/mL.
Still for that read-out and setting: to `CCCCC(C)(C)C(=O)OCN1C(=O)CCc2ccc(OCCCCN3CCN(c4cccc5sccc45)CC3)cc21` [Example 84, 2,2-dimethylhexanoic acid 7-[4-(4-benzo[b]thiophen-4-ylpiperazin-1-yl)butoxy]-2-oxo-3,4-dihydro-2H-quinolin-1-ylmethyl ester] belongs more than 100 mg/mL.
`CC(=O)OCN1C(=O)CCc2ccc(OCCCCN3CCN(c4cccc5sccc45)CC3)cc21` [Example 85, acetic acid 7-[4-(4-benzo[b]thiophen-4-ylpiperazin-1-yl)butoxy]-2-oxo-3,4-dihydro-2H-quinolin-1-ylmethyl ester]: for the setting “benzyl benzoate”, the solubility is more than 100 mg/mL.
On to `O=C(OCN1C(=O)CCc2ccc(OCCCCN3CCN(c4cccc5sccc45)CC3)cc21)N1CCOCC1` [Example 86, morpholine-4-carboxylic acid 7-[4-(4-benzo[b]thiophen-4-ylpiperazin-1-yl)butoxy]-2-oxo-3,4-dihydro-2H-quinolin-1-ylmethyl ester], for which the solubility (benzyl benzoate) is more than 100 mg/mL.
On to `CCC(C)C(=O)OCn1c(=O)ccc2ccc(OCCCCN3CCN(c4cccc5sccc45)CC3)cc21` (stereo not drawn) [Example 87, 2-methylbutyric acid 7-[4-(4-benzo[b]thiophen-4-ylpiperazin-1-yl)butoxy]-2-oxo-2H-quinolin-1-ylmethyl ester], for which the solubility (benzyl benzoate) is more than 100 mg/mL.
The same measure, in the same setting: under `CCCCC(C)C(=O)OCn1c(=O)ccc2ccc(OCCCCN3CCN(c4cccc5sccc45)CC3)cc21` (stereo not drawn) [Example 88, 2-methylhexanoic acid 7-[4-(4-benzo[b]thiophen-4-ylpiperazin-1-yl)butoxy]-2-oxo-2H-quinolin-1-ylmethyl ester] stands more than 100 mg/mL.
Where the note is “benzyl benzoate”, `COC(=O)CNC(=O)OCN1C(=O)CCc2ccc(OCCCCN3CCN(c4cccc5sccc45)CC3)cc21` [Example 89, {7-[4-(4-benzo[b]thiophen-4-ylpiperazin-1-yl)butoxy]-2-oxo-3,4-dihydro-2H-quinolin-1-ylmethoxycarbonylamino}acetic acid methyl ester] registered a solubility of more than 100 mg/mL.
The compound `COC(=O)CN(C)C(=O)OCN1C(=O)CCc2ccc(OCCCCN3CCN(c4cccc5sccc45)CC3)cc21` [Example 90, ({7-[4-(4-benzo[b]thiophen-4-ylpiperazin-1-yl)butoxy]-2-oxo-3,4-dihydro-2H-quinolin-1-ylmethoxycarbonyl}methylamino)acetic acid methyl ester] had a solubility (benzyl benzoate) of more than 100 mg/mL.
For `CCCCCCCCCCCCCCC(=O)OCN1C(=O)CCc2ccc(OCCCCN3CCN(c4cccc5sccc45)CC3)cc21` [Example 91, pentadecanoic acid 7-[4-(4-benzo[b]thiophen-4-ylpiperazin-1-yl)butoxy]-2-oxo-3,4-dihydro-2H-quinolin-1-ylmethyl ester], the solubility (benzyl benzoate) was more than 100 mg/mL.
For `CCCCCC(C)C(=O)OCN1C(=O)CCc2ccc(OCCCCN3CCN(c4cccc5sccc45)CC3)cc21` (stereo not drawn) [Example 92, 2-methylheptanoic acid 7-[4-(4-benzo[b]thiophen-4-ylpiperazin-1-yl)butoxy]-2-oxo-3,4-dihydro-2H-quinolin-1-ylmethyl ester], the solubility (benzyl benzoate) is more than 100 mg/mL.
On the same count and under the same terms, to `O=C(NCCC(F)(F)F)OCN1C(=O)CCc2ccc(OCCCCN3CCN(c4cccc5sccc45)CC3)cc21` [Example 93, N-(3,3,3-trifluoropropyl)carbamic acid 7-[4-(4-benzo[b]thiophen-4-ylpiperazin-1-yl)butoxy]-2-oxo-3,4-dihydro-2H-quinolin-1-ylmethyl ester] belongs more than 100 mg/mL; to `CCCC(C)C(=O)OCn1c(=O)ccc2ccc(OCCCCN3CCN(c4cccc5sccc45)CC3)cc21` (stereo not drawn) [Example 94, 2-methylpentanoic acid 7-[4-(4-benzo[b]thiophen-4-ylpiperazin-1-yl)butoxy]-2-oxo-2H-quinolin-1-ylmethyl ester], more than 100 mg/mL.
Turning to `CCCCCCCCCCCCCCCCC(=O)OCN1C(=O)CCc2ccc(OCCCCN3CCN(c4cccc5sccc45)CC3)cc21` [Example 95, heptadecanoic acid 7-[4-(4-benzo[b]thiophen-4-ylpiperazin-1-yl)butoxy]-2-oxo-3,4-dihydro-2H-quinolin-1-ylmethyl ester], the solubility (benzyl benzoate) is more than 100 mg/mL.
